Several values for one entry are separate records, joined by “and”; a condition that tells them apart may be missing. Identical values can stand only once. Counter-ions that a name gives are not always drawn. Like-named read-outs stand apart in the source and are kept apart here.
Assays:
Sprague Dawley rats = test system: Sprague Dawley rats
Experimental: This study examined acute toxicity from single IV administration of mCBS in rats with doses up to 1000 mg/kg.
The acute toxicity of β-O-methyl cellobioside sulfate (mCBS) was assessed in Sprague Dawley rats following intravenous administration of a single bolus dose. A total of five groups of n=3 adult female rats were treated with 10, 30, 100, 300 and 1000 mg/kg doses of mCBS test item in the form of the sodium salt (mCBS.Na) in this dose range finding study. […] The rats were then observed for 7 days prior to termination without necropsy.

[1] = Stability of mCBS vs CBS in formulated clinical material (HPLC); format: physicochemical; conditions: formulated clinical material in phosphate buffer, 5±3° C., 25±2° C./60% RH, 40±2° C./75% RH
Experimental: Stability studies were carried out at 5±3° C., 25±2° C./60% RH and 40±2° C./75% RH ° C. conditions. Levels of both mCBS and cellobiose sulfate (CBS) were tracked in formulated clinical material (i.e. mCBS in phosphate buffer) via HPLC.

Sprague-Dawley rats = test system: Sprague-Dawley rats
Experimental: The objective of these studies was to determine the toxicity of the test item, mCBS, when administered by continuous (24 hours/day) intravenous infusion through a surgically implanted catheter for 7 consecutive days to Sprague-Dawley rats.
The test and control item dose formulations of mCBS (in the form of the heptasodium salt mCBS.Na) were administered to groups of rats by continuous (24 hours/day) intravenous infusion for 7 consecutive days as described in the Table 14 below.
Parameters monitored during this study included mortality, clinical observations, body weights and food consumption. In addition, hematology, coagulation and clinical chemistry parameters were evaluated on Day 9. Blood samples were collected from the animals at timepoints relative to the start of the infusion for analysis of test item concentration in plasma. At termination (Day 9), all animals were euthanized and subjected to a gross necropsy examination. Organ weights were measured on selected organs and a selected list of tissues, including gross lesions, were retained and prepared for microscopic evaluation.

mice = assay: In-vivo histone toxicity assay, circulating blood cells at 10 min; parameters: species or system mouse; conditions: 100 mg/kg i.p. 10 min prior to histones 50 mg/kg i.v.; bled 10 min later
Experimental: In-vivo histone toxicity assays. BALB/c female mice (5˜6 weeks of age), that are more prone to histone-induced anemia and easier to inject i.v. at this young age than C57BL/6 mice, were injected i.p. with test compounds at concentrations indicated 10 min prior to i.v. injection of histones (50 mg kg^−1) in phosphate buffered saline. Retro-orbital bleeds were performed at 10 min after histone injection and collected blood added to acid citrate dextrose (ACD), the 10 min blood sample being subjected to hematologic analyses for platelet and erythrocyte content using an ADVIA 2120i Hematology Analyzer. Spleens were also harvested at 10 min post-histone injection and splenic hemoglobin content quantified using a hemoglobin assay kit (Sigma-Aldrich). In the case of 4 h blood samples, male C57/BL/6 mice (6-8 weeks of age) were injected with test compounds and histones as above and plasma isolated and stored frozen for subsequent biochemical testing, with markers for liver (alanine aminotransferase, ALT), kidney (Creatinine, Crea) and general tissue (lactate dehydrogenase, LDH) damage being determined by the Department of Pathology, The Canberra Hospital.
Accordingly, the inventors in this example investigated the protective effect of mCBS on cells within the blood stream following intravenous injection of histones. […]

HMEC-1 = assay: Histone-induced calcium flux in endothelial cells; format: cell-based, human; conditions: mCBS 100 μg ml−1, histones 100 μg ml−1
Experimental: Calcium flux studies in endothelial cells. HMEC-1 (2×10^7 ml^−1) in RPMI-1640 medium were incubated with Indo-1 AM (5 μM)(ThermoFisher) at 37° C. for 60 min. […] The cell suspension was kept on ice and used within 3 h. Intracellular Ca^2+ flux was monitored using flow cytometry. The cells were pre-equilibrated and maintained at 37° C. during analysis using an external sheath connected to a heated water bath. After the exclusion of cellular debris and clumped cells (on the basis of FSC/SSC light scattering) the basal Ca^2+ level was monitored for 2 min before histone addition in the presence/absence of novel compounds. Ca^2+ levels were measured at 1, 4 and 10 min post-histone addition with a constant flow rate (˜300 events/sec). Ca^2+ flux was determined as an increase in the ratio of geometric mean fluorescence intensity (GMFI) of Ca^2+-bound over Ca^2+-unbound Indo-1.

rat plasma proteins = assay: Plasma protein binding by ultrafiltration, rat plasma; format: in vitro ADME; conditions: for Concentration of mCBS, 200 ng/mL Post-filter / Concentration of mCBS, 200 ng/mL Pre-filter / Concentration of mCBS, 2000 ng/mL Post-filter / Concentration of mCBS, 2000 ng/mL Pre-filter: replicates and Mean
Experimental: Protein binding was assessed by an ultrafiltration method using Centrifree® Ultrafiltration Devices with a 30000 dalton molecular weight cut-off point. Briefly, known concentrations of mCBS (as free base) were added to human, rat and dog plasma samples and incubated for 20 min at 37° C. The samples were then subject to ultrafiltration to separate protein bound and unbound drug.
mCBS stock solutions (10 μL) were spiked into solutions of each test matrix (490 μL) as listed below in Table 9 to have a final concentration of 200 ng/mL & 2000 ng/m L.
Spiked samples were then incubated at 37° C. for 20 minutes in a water bath. Aliquots of the samples from each test group (500 μL) were transferred to the ultrafiltration devices (n=3) and centrifuged for 20 minutes at 1000 g. After centrifugation, aliquots of the ultrafiltrates (50 μL) were transferred to separate test tubes for extraction, alongside duplicate aliquots of the samples prior to ultrafiltration from each test group.
For quantification of samples before ultrafiltration, samples were analysed against a freshly prepared standard curve in plasma.

[2] = animals treated with 1394 mg/kg/day (free base)

Structure (SMILES): CO[C@@H]1O[C@H](COS(=O)(=O)O)[C@@H](O[C@@H]2O[C@H](COS(=O)(=O)O)[C@@H](OS(=O)(=O)O)[C@H](OS(=O)(=O)O)[C@H]2OS(=O)(=O)O)[C@H](OS(=O)(=O)O)[C@H]1OS(=O)(=O)O [mCBS, β-O-methyl cellobioside sulfate]
- MTD estimate from potency assessment, free base (Sprague Dawley rats; IV bolus single and 7-day studies, corrected for potency): ~600 mg/kg
- Maximum Tolerated Dose (MTD), as free base (Sprague Dawley rats; single IV bolus, corrected for purity and sodium content): 815 mg/kg
- level relative to starting amount (T=0) over time [1]: very stable
- AUC5-96 h and Css versus dose (Sprague-Dawley rats; 1394-5575 mg/kg/day): increased linearly with dose
- plasma concentration versus time (Sprague-Dawley rats; 5 h to 96 h (or 168 h) infusion interval): steady state concentrations of mCBS were maintained
- liver microscopic findings (Sprague-Dawley rats; [2]): accumulation of foamy Kupffer cells
- lymph node microscopic findings (Sprague-Dawley rats; [2]): accumulation of foam macrophages
- liver microscopic findings (Sprague-Dawley rats; animals treated with 2178 mg/kg/day (free base)): single cell necrosis
- liver microscopic findings (Sprague-Dawley rats; animals treated with 2178 and 5575 mg/kg/day): focal or multiple focal necrosis
- spleen microscopic findings (Sprague-Dawley rats; animals treated with ≤1394 mg/kg/day (so in the source), free base): accumulation of foamy macrophages associated with increased apoptotic cells in the red pulp
- kidney microscopic findings (Sprague-Dawley rats; animals treated with ≤2178 mg/kg/day (so in the source), free base): proximal tubular vacuolation/rarefaction
- urea, total protein and albumin (Sprague-Dawley rats; both sexes at 5575 mg/kg/day): increase in urea and decreases in total protein and albumin
- white blood cell lines (Sprague-Dawley rats; both sexes at doses ≤3484 mg/kg/day (so in the source)): Increases in white blood cell lines
- body weight gain and food consumption (Sprague-Dawley rats; both sexes, 5575 mg/kg/day (free base)): Decreases in body weight gain
- No Observable Adverse Effect Level (NOAEL) (Sprague-Dawley rats; free base, corrected for potency and salt content, continuous IV infusion 7 days): 1394 mg/kg/day
- red blood cell parameters and reticulocytes (Sprague-Dawley rats; males at 5575 mg/kg/day): decreases in red blood cell counts, hemoglobin, hematocrit, mean corpuscular volume and mean corpuscular hemoglobin concentration as well as increases in the reticulocytes
- activated partial thromboplastin time (Sprague-Dawley rats; males at doses 2178 mg/kg/day, females at doses ≤3484 mg/kg/day (so in the source)): Increases in activated partial thromboplastin time
- Liver enzymes (ALT, AST), cholesterol and triglycerides (Sprague-Dawley rats; males dosed at 5575 mg/kg/day): increased
- histone-mediated reductions in circulating leukocytes, platelets, erythrocytes and haemoglobin (mice): significantly inhibited if not completely abolished
- histone-induced Ca2+ flux (HMEC-1): substantially inhibited the response
- Plasma protein binding (rat plasma proteins; 200 ng/mL): 19.4%
- Plasma protein binding (rat plasma proteins; 2000 ng/mL): 19.8%
- Concentration of mCBS, 200 ng/mL Post-filter (rat plasma proteins): 0.164 µg/mL and 0.177 µg/mL and 0.167 µg/mL
- Concentration of mCBS, 200 ng/mL Pre-filter (rat plasma proteins): 0.205 µg/mL and 0.217 µg/mL
- Concentration of mCBS, 2000 ng/mL Post-filter (rat plasma proteins): 1.71 µg/mL and 1.74 µg/mL and 1.69 µg/mL
- Concentration of mCBS, 2000 ng/mL Pre-filter (rat plasma proteins): 2.09 µg/mL and 2.18 µg/mL
- Concentration of mCBS, 200 ng/mL Post-filter (rat plasma proteins; mean): 0.17 µg/mL
- Concentration of mCBS, 200 ng/mL Pre-filter (rat plasma proteins; mean): 0.211 µg/mL
- Concentration of mCBS, 2000 ng/mL Post-filter (rat plasma proteins; mean): 1.713 µg/mL
- Concentration of mCBS, 2000 ng/mL Pre-filter (rat plasma proteins; mean): 2.135 µg/mL
